“Also recorded” adds a separate entry of the source.
Columns and labels:
NCI-H460 cells [1] = type: cell-based, human
NCI-H460 cells [2] = type: cell-based, human; remark: listed apart in the source
NCI-H460 cells [3] = type: cell-based, human; conditions: 48 hours
NCI-H460 cells [4] = type: cell-based, human; remark: listed apart in the source
NCI-H460 cells [5] = type: cell-based, human; conditions: 48 hours; remark: listed apart in the source
NCI-H460 cells [6] = type: cell-based, human; conditions: 48 hours; remark: listed apart in the source
[7] = test system: marker genes in NCI-H460 cells; type: cell-based, human; conditions: 48 hours
[8] = test system: protein markers in NCI-H460 cells; type: cell-based, human; conditions: 48 hours
H460 cells [9] = type: cell-based, human
H460 cells [10] = type: cell-based, human; remark: listed apart in the source
NIH-3T3 cells = conditions: at 50 µM

In the case of `C=C(C)[C@@H]1CC[C@]2(CO)CC[C@]3(C)[C@H](CC[C@@H]4[C@@]5(C)CC[C@H](O)C(C)(C)[C@@H]5CC[C@]43C)[C@@H]12` [Betulin (3), Lup-20 (29)-ene-3, 28-diol], the “activity against cancer cells compared to normal 3t3 cells” value (NCI-H460 cells [1]) is reported as “four times more active”, the “reduction in wound healing rates of treated vs untreated cells” value (NCI-H460 cells [2]) is reported as “approximate threefold reduction” and the “invasive ability of NCI-H460 cells” value (NCI-H460 cells [3]) is reported as “inhibited in a dose-dependent manner”. For the same compound, the “induction of apoptosis (FACS)” value (NCI-H460 cells [4]) was “significantly underwent apoptosis in a dose-dependent manner”, the “mitochondrial membrane potential (Δψm)” value (NCI-H460 cells [5]) was “collapse of MMP” and the nuclear morphology (NCI-H460 cells [6]) was “highly condensed nucleus, apoptotic bodies and DNA fragmentation”. For the same compound, the BAK gene expression [7] was “upregulated”, the BAX gene expression [7] was “upregulated” and the BCL-2L1 gene expression [7] was “significantly downregulated”. For the same compound, the COX-2 gene expression [7] was “inhibited”, the HRK gene expression [7] was “upregulation” and the VEGF gene expression [7] was “inhibited”. The caspase-3 gene expression [7] was “significantly upregulated”, the caspase-6 gene expression [7] was “significantly upregulated” and the caspase-8 gene expression [7] was “inhibited; also recorded: significantly downregulated”. For the same compound, the caspase-9 gene expression [7] was “significantly upregulated”, the p53 gene expression [7] was “significantly downregulated” and the “BCL-2L1 protein expression (immunocytochemistry)” value [8] was “marked inhibition”. For the same compound, the “caspase-3 protein expression (immunofluorescence)” value [8] was “significant upregulation”, the “caspase-6 protein expression (immunofluorescence)” value [8] was “significant upregulation” and the “caspase-8 protein expression (immunofluorescence)” value [8] was “decreased with the increase in betulin treatment”. For the same compound, the “expression of proliferative marker Ki-67” value [8] was “significant inhibition”, the “osteopontin levels (immunocytochemistry)” value [8] was “positively inhibited” and the colony formation (H460 cells [9]) was “completely eradicated cancer cells”. The “morphological changes of H460 cells” value (H460 cells [10]) was “membrane blebbing and formation of apoptotic bodies”, the “cytotoxicity to normal NIH-3T3 cells” value (NIH-3T3 cells) was “noncytotoxic” and the “morphology of 3T3 cells” value (3T3 cells) was “regained their normal morphology and started to propagate”.
